Reference: patent US20200323213A1, “Methods of use for compositions comprising biguanide compound and diol surfactant” (3M INNOVATIVE PROPERTIES COMPANY, priority 2014, published 2020)

How the values were obtained:
[1] = system: Staphylococcus aureus strain 15981; assay: Antimicrobial efficacy test: survival of planktonic S. aureus after short exposure; type: cell-based; conditions: 0.1wt-% of CHG, alone or in combination with DYNOL (text summary, matches Table 4)
Excerpt: The composition described herein can reduce and eliminate Staphylococcus aureus and Pseudomonas aeruginosa. Those of ordinary skill in the art will readily determine when a composition provides antimicrobial activity using assay and bacterial screening methods well known in the art. For example, the compositions can be evaluated utilizing Antimicrobial Efficacy Test described in the Examples Section. Briefly, a bacterial suspension is introduced into a liquid composition. After a sufficient contact time, the sample containing the exposed bacteria is collected, placed in neutralizing broth, a sample is taken and diluted, and plated on growth medium. The plated sample is incubated at an appropriate temperature and humidity for twenty four to forty-eight hours and the number of viable bacterial colonies growing on the plate is counted. Once colonies have been counted the reduction in the number of bacteria caused by the test composition is readily determined. Bacterial reduction is generally reported as log10 reduction determined by the difference between the log10 of the initial inoculum count (i.e. the control) and the log10 of the inoculum count after exposure. […]

[2] = cited from earlier work

N=C(NCCCCCCNC(=N)NC(=N)Nc1ccc(Cl)cc1)NC(=N)Nc1ccc(Cl)cc1.O=C(O)[C@H](O)[C@@H](O)[C@H](O)[C@H](O)CO.O=C(O)[C@H](O)[C@@H](O)[C@H](O)[C@H](O)CO [CHG, chlorhexidine digluconate]
log10 reduction [1]: 0.32

CC(=O)O.CC(=O)O.NC(=N\CCCCCC/N=C(N)/N=C(\N)Nc1ccc(Cl)cc1)/N=C(\N)Nc1ccc(Cl)cc1 [diacetate]
solubility in aqueous fluid [2]: 1.9 g/100 ml
